Tests used:
[1] = In vitro release of stabilizers from implantable devices and disassembly of the devices (Contemplated Examples); assay type: physicochemical; settings: for pH maintained inside device: disassembly of devices at 2 months, 26 mM bis-tris buffer, 154 mM NaCl; for pH maintained inside device / duration for which stabilizer level (pH or concentration) is maintained in device: 37° C.; for release rate profile of stabilizer out of device through nanoporous membrane: in vitro testing, reverse phase HPLC; for duration for which stabilizer level (pH or concentration) is maintained in device: in vitro
Description: In the examples below the devices that are used include titanium capsules of approximately 25 mm length and 2.25 mm diameter. A titanium substrate with a titanium oxide nanoporous membrane is welded to one end of the device. […] A silicone septum is located at the other end of the device. Extended-release configurations of stabilizers, prepared as described further below, are incorporated into the reservoirs before final attachment of the membrane and septum on the device. A formulation solvent is filled into the device as per methods in PCT/US2021/019559. Briefly, the formulation solvent is loaded into a filler apparatus with a hollow needle to pierce the septum. A vacuum is applied to the membrane of the device to reduce the pressure inside the reservoir, and the formulation is injected through the septum into the reservoir through the needle. The durability of the presence of stabilizers inside devices of the disclosure may be tested by measuring release of the stabilizers from the devices in vitro. In vitro testing is performed by submerging the devices in 3 ml of a 26 mM bis-tris buffer, 154 mM NaCl on a shaker plate at 37° C. and measuring the amounts of stabilizer released at regular intervals by reverse phase HPLC.

[2] = cited from earlier work
[3] = Forced degradation study of exenatide with and without PLGA in titanium reservoirs with nanotube membrane; purity of released exenatide by HPLC; assay type: physicochemical; settings: 37 C, devices in PBS pH 7.4 with full access to air; for Exenatide purity over time (% purity), 7 days: day 7; for Exenatide purity over time (% purity), 14 days: day 14; for Exenatide purity over time (% purity), 28 days: day 28; for Exenatide purity over time (% purity), 35 days: day 35; for Exenatide purity over time (% purity), 42 days: day 42; for Exenatide purity over time (% purity), 56 days: day 56
Method: To avoid confounding factors, no other stabilizers were used in the study.
The devices were incubated in phosphate buffered saline (pH 7.4) under full access to air (oxygen).

**Q.** Which “pH maintained inside device” value [1] does the source give for O=C(O)c1ccccc1 [benzoic acid] here?
**A.** below 6

**Q.** What about the “release rate profile of stabilizer out of device through nanoporous membrane” value (“release rate profile” for short) [1] of the same molecule?
**A.** declining with approximately the square root of time

**Q.** And the “duration for which stabilizer level (pH or concentration) is maintained in device” value (“duration for which stabilizer level” below) [1]?
**A.** at least 2 months

**Q.** For Cc1cc(C(C)(C)C)c(O)c(C(C)(C)C)c1 [butylated hydroxytoluene], which “reported solubility in water” value [2] is on record?
**A.** about 1 ppm

**Q.** For [H]/N=C(\N/C(=N/[H])NCCCCCCNC(=N)NC(=N)Nc1ccc(Cl)cc1)Nc1ccc(Cl)cc1 [chlorhexidine, Chlorhexidine], which “pH maintained inside device” value [1] is on record?
**A.** above 8

**Q.** What about the “release rate profile” value [1] of the same molecule?
**A.** declining with approximately the square root of time

**Q.** And the “duration for which stabilizer level” value [1]?
**A.** at least 2 months

**Q.** For Oc1ccc(O)cc1 [hydroquinone, Hydroquinone], which “stabilizer concentration maintained in device” value ([1]; disassembly of devices at 4 months) is on record?
**A.** at least 0.05%

**Q.** What about the “release rate profile” value [1] of the same molecule?
**A.** approximately constant rate

**Q.** And the “duration for which stabilizer level” value [1]?
**A.** at least 4 months

**Q.** With CCCOC(=O)c1cc(O)c(O)c(O)c1 [propyl gallate] as the molecule, how does the “stabilizer concentration maintained in device” value ([1]; disassembly of devices at 3 months) read?
**A.** at least 0.05%

**Q.** What about the “release rate profile” value [1] of the same molecule?
**A.** declining with approximately the square root of time

**Q.** What about the “duration for which stabilizer level” value [1] of the same molecule?
**A.** at least 3 months

**Q.** Which results are given for “Exenatide only (Irradiated): E-beam irradiated (25k Gray) exenatide solution 200 mg/ml, no PLGA”?
**A.** Exenatide purity over time (% purity), 7 days [3]: 96 % purity; Exenatide purity over time (% purity), 14 days [3]: 91 % purity; Exenatide purity over time (% purity), 28 days [3]: 82 % purity; Exenatide purity over time (% purity), 35 days [3]: 75 % purity; Exenatide purity over time (% purity), 42 days [3]: 66 % purity; Exenatide purity over time (% purity), 56 days [3]: 51 % purity

**Q.** Which “Exenatide purity over time (% purity), 7 days” value [3] does the source give for “Exenatide only: 20% (w/v) exenatide solution in Water For Injection with 0.04% NaN3, no PLGA, non-irradiated” here?
**A.** 99 % purity

**Q.** What about the “Exenatide purity over time (% purity), 14 days” value [3] of the same molecule?
**A.** 89 % purity

**Q.** What about the “Exenatide purity over time (% purity), 28 days” value [3] of the same molecule?
**A.** 87 % purity

**Q.** And the “Exenatide purity over time (% purity), 35 days” value [3]?
**A.** 82 % purity

**Q.** What about the “Exenatide purity over time (% purity), 42 days” value [3] of the same molecule?
**A.** 72 % purity

**Q.** What about the “Exenatide purity over time (% purity), 56 days” value [3] of the same molecule?
**A.** 62 % purity
